Data reported in patent US9963445B2, “Chemical compounds” (SYNGENTA PARTICIPATIONS AG, priority 2013, dated 2018).

Legend:
Assay type in all cases: in vivo
Abutilon theophrasti [1] = assay: Pre-emergence herbicidal activity, glasshouse pot test; conditions: pre-emergence spray, rate 1000 g/ha, evaluated after 13 days, scale 0-5
Method in brief: (§1)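 Seeds sown in standard soil were sprayed one day after sowing, before emergence, with compound formulated in acetone/water (50:50) plus 0.5% Tween 20. Plants were grown at 24/16 °C day/night, 14 h light, 65% humidity, watered twice daily, and damage was scored after 13 days (0 = none, 5 = total).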

Alopecurus myosuroides [2] = assay: as above; conditions: pre-emergence spray, rate 1000 g/ha, evaluated after 13 days, scale 0-5
Method in brief: as §1

Amaranthus retroflexus [3] = assay: as above; conditions: pre-emergence spray, rate 1000 g/ha, evaluated after 13 days, scale 0-5
Method in brief: as §1

Echinochloa crus-galli [4] = assay: as above; conditions: pre-emergence spray, rate 1000 g/ha, evaluated after 13 days, scale 0-5
Method in brief: as §1

Setaria faberi [5] = assay: as above; conditions: pre-emergence spray, rate 1000 g/ha, evaluated after 13 days, scale 0-5
Method in brief: as §1

zea mays [6] = assay: as above; conditions: pre-emergence spray, rate 1000 g/ha, evaluated after 13 days, scale 0-5
Method in brief: as §1

Abutilon theophrasti [7] = assay: Post-emergence herbicidal activity, glasshouse pot test; parameters: key: 0 = no damage to plant, 5 = total damage to plant; conditions: Application post-emergence, rate 1000 g/ha, evaluated after 13 days
Method in brief: (§2)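 Test solution: technical active ingredient in acetone/water (50:50) containing 0.5% Tween 20, applied as an aqueous spray to 8-day-old plants. Evaluation at 13 days, 0–5 damage scale.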

Alopecurus myosuroides [8] = assay: as above; parameters: key: 0 = no damage to plant, 5 = total damage to plant; conditions: Application post-emergence, rate 1000 g/ha, evaluated after 13 days
Method in brief: as §2

Amaranthus retroflexus [9] = assay: as above; parameters: key: 0 = no damage to plant, 5 = total damage to plant; conditions: Application post-emergence, rate 1000 g/ha, evaluated after 13 days
Method in brief: as §2

Echinochloa crus-galli [10] = assay: as above; parameters: key: 0 = no damage to plant, 5 = total damage to plant; conditions: Application post-emergence, rate 1000 g/ha, evaluated after 13 days
Method in brief: as §2

Setaria faberi [11] = assay: as above; parameters: key: 0 = no damage to plant, 5 = total damage to plant; conditions: Application post-emergence, rate 1000 g/ha, evaluated after 13 days
Method in brief: as §2

zea mays [12] = assay: as above; parameters: key: 0 = no damage to plant, 5 = total damage to plant; conditions: Application post-emergence, rate 1000 g/ha, evaluated after 13 days
Method in brief: as §2

SMILES | ABUTH damage score, application pre-emergence (Abutilon theophrasti [1]) | ALOMY damage score, application pre-emergence (Alopecurus myosuroides [2]) | AMARE damage score, application pre-emergence (Amaranthus retroflexus [3]) | ECHCG damage score, application pre-emergence (Echinochloa crus-galli [4]) | SETFA damage score, application pre-emergence (Setaria faberi [5]) | ZEAMX damage score, application pre-emergence (zea mays [6]) | ABUTH herbicidal damage score (Abutilon theophrasti [7]) | ALOMY herbicidal damage score (Alopecurus myosuroides [8]) | AMARE herbicidal damage score (Amaranthus retroflexus [9]) | ECHCG herbicidal damage score (Echinochloa crus-galli [10]) | SETFA herbicidal damage score (Setaria faberi [11]) | ZEAMX herbicidal damage score (zea mays [12])
C#CC(C)(C)NC(=O)c1ccc(N2C(=O)C(OC)=C(C)C2O)nn1 (stereo not drawn) [BI27] | 4 | 2 | 5 | 4 | 4 | 1 | 5 | 4 | 5 | 5 | 5 | 4
CCN(CC)C(=O)c1cnc(N2C(=O)C(OC)=C(C)C2O)cc1C(F)(F)F (stereo not drawn) [AI9] | 5 | 4 | 5 | 5 | 4 | 3 | 5 | 5 | 5 | 5 | 5 | 4
COC1=C(C)C(O)N(c2cc(C(F)(F)F)c(C(=O)NC(C)(C)C)cn2)C1=O (stereo not drawn) [AI6] | 5 | 4 | 5 | 5 | 5 | 4 | 5 | 5 | 5 | 5 | 5 | 5
COC1=C(C)C(O)N(c2cc(C(C)(C)F)c(C)nn2)C1=O (stereo not drawn) [BI16] | 5 | 3 | 5 | 4 | 5 | 3 | 5 | 4 | 5 | 5 | 5 | 4
COC1=C(OC)C(O)N(c2cc(C(F)(F)F)ncn2)C1=O (stereo not drawn) [CK4] | 5 | 4 | 4 | 4 | 5 | 3 | 5 | 5 | 3 | 5 | 5 | 4
